Experimental data from the supplement of paper PMC10307832.

Tests used:
Experiment in all cases: relative viability (nuclei count vs DMSO), 5 days (fraction); higher = more cells survive
Trametinib + OSI-027 = compound: CC(=O)Nc1cccc(-n2c(=O)n(C3CC3)c(=O)c3c(Nc4ccc(I)cc4F)n(C)c(=O)c(C)c32)c1 [Trametinib] + COc1cccc2cc(-c3nc([C@H]4CC[C@H](C(=O)O)CC4)n4ncnc(N)c34)[nH]c12 [OSI-027] (partner 0.5 µM)
Method in brief: (§1)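 Five library-drug doses in √10 steps were combined with a fixed anchor-drug dose, or a single drug was given alone, by pin tool to lung cancer cell lines in 1536-well plates the day after seeding. Nuclei were stained and counted after 5 days. Relative viability is the nuclei count in treated wells over that in vehicle wells, taken as the median of duplicate plates.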

[1] = compound: CN1C=C(C2=CC=CC=C21)/C=C\3/C4=C(C=CC=N4)NC3=O + N=C(N)NC(=N)NCCc1ccccc1 [Phenformin] (partner 250 µM)
Method in brief: as §1

Trametinib + Crizotinib = compound: CC(=O)Nc1cccc(-n2c(=O)n(C3CC3)c(=O)c3c(Nc4ccc(I)cc4F)n(C)c(=O)c(C)c32)c1 [Trametinib] + C[C@@H](Oc1cc(-c2cnn(C3CCNCC3)c2)cnc1N)c1c(Cl)ccc(F)c1Cl [Crizotinib] (partner 1 µM)
Method in brief: as §1

[2] = compound: CN1C=C(C2=CC=CC=C21)/C=C\3/C4=C(C=CC=N4)NC3=O + Cc1nc(Nc2ncc(C(=O)Nc3c(C)cccc3Cl)s2)cc(N2CCN(CCO)CC2)n1 [Dasatinib] (partner 0.075 µM)
Method in brief: as §1

Row | Cell Line | relative viability (Trametinib + OSI-027; first compound 0.0025 µM) | relative viability (Trametinib + OSI-027; first compound 0.007906 µM) | relative viability (Trametinib + OSI-027; first compound 0.025 µM) | relative viability (Trametinib + OSI-027; first compound 0.07906 µM) | relative viability (Trametinib + OSI-027; first compound 0.25 µM) | relative viability ([1]; first compound 0.02 µM) | relative viability ([1]; first compound 0.06325 µM) | relative viability ([1]; first compound 0.2 µM) | relative viability ([1]; first compound 0.6325 µM) | relative viability ([1]; first compound 2 µM) | relative viability (Trametinib + Crizotinib; first compound 0.0025 µM) | relative viability (Trametinib + Crizotinib; first compound 0.007906 µM) | relative viability (Trametinib + Crizotinib; first compound 0.025 µM) | relative viability (Trametinib + Crizotinib; first compound 0.25 µM) | relative viability ([2]; first compound 0.02 µM) | relative viability ([2]; first compound 0.06325 µM) | relative viability ([2]; first compound 0.2 µM) | relative viability ([2]; first compound 0.6325 µM) | relative viability ([2]; first compound 2 µM) | relative viability (Trametinib + Crizotinib; first compound 0.07906 µM)
1 | LC-2-ad | 0.853 | 0.57 | 0.513 | 0.516 | 0.416 | 0.595 | 0.546 | 0.414 | 0.537 | 0.549 | 0.47 | 0.463 | 0.422 | 0.294 | 0.572 | 0.482 | 0.45 | 0.597 | 0.515 | 
2 | LCLC-97TM1 | 0.346 | 0.379 | 0.268 | 0.272 | 0.271 | 0.462 | 0.408 | 0.411 | 0.442 | 0.428 | 0.482 | 0.573 | 0.271 | 0.147 | 0.529 | 0.76 | 0.876 | 0.968 | 0.882 | 0.281
3 | NCI-H1915 | 0.538 | 0.314 | 0.293 | 0.21 | 0.159 | 0.331 | 0.361 | 0.365 | 0.347 | 0.36 | 0.872 | 0.756 | 0.568 | 0.231 | 0.331 | 0.295 | 0.274 | 0.338 | 0.31 | 0.333
4 | NCI-H3122 | 0.555 | 0.352 | 0.211 | 0.169 | 0.159 | 0.347 | 0.333 |  | 0.375 | 0.355 | 0.238 | 0.228 | 0.221 | 0.209 | 0.722 | 0.756 | 0.753 | 0.844 | 0.835 | 0.199
5 | NCI-H1650 | 0.632 | 0.604 | 0.534 | 0.451 | 0.204 | 0.401 | 0.451 | 0.362 | 0.345 | 0.397 | 1.04 | 0.779 | 0.795 | 0.302 | 0.262 | 0.296 | 0.26 | 0.263 | 0.277 | 0.69
6 | NCI-H1993 | 0.545 | 0.606 | 0.624 | 0.657 | 0.699 | 0.544 | 0.432 | 0.431 | 0.55 | 0.509 | 0.796 | 0.716 | 0.797 | 0.662 | 0.537 | 0.59 | 0.523 | 0.468 | 0.951 | 0.674
7 | NCI-H2405 | 0.651 | 0.621 | 0.488 | 0.43 | 0.412 | 0.416 | 0.381 | 0.366 | 0.328 | 0.4 | 0.864 | 0.836 | 0.685 | 0.521 | 0.253 | 0.22 | 0.205 | 0.196 | 0.241 | 0.561
8 | NCI-H661 | 0.686 | 0.595 | 0.51 | 0.522 | 0.389 | 0.261 | 0.277 | 0.266 | 0.276 | 0.264 | 1.12 | 1.19 | 1.03 | 1.08 | 0.892 | 0.827 | 0.626 | 0.819 | 0.853 | 1.04
